From patent publication US7405240B2, “Substituted cyclopentanes or cyclopentanones as therapeutic agents” (Allergan, Inc., priority 2006, dated 2008)

Columns and labels:
[1] = target: T1, hEP4 (Homo sapiens, UniProt P35408); experiment: Radioligand binding, EP4 receptor; design: expressed in transfected cells; host or cells: HEK-293; settings: [3H]PGE2, HEK-293 cells expressing EP4
Method in brief: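 HEK-293 membranes stably expressing human EP4, in TME buffer pH 7.4; competition vs 5 nM [3H]-PGE2, 60 min at 25 °C, stopped by GF/B filtration. Non-specific binding defined with 10^−5 M unlabeled PGE2; duplicates, at least three experiments.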

[2] = tested on: laser-induced hypertensive monkeys; experiment: Intraocular pressure in laser-induced hypertensive monkeys; type: in vivo, monkey; settings: one single day dose
Protocol: (§1) (Z)-7-[(1R,2S,3R,5R)-5-Chloro-2-(3,5-dichloro-phenoxymethyl)-3-hydroxy-cyclopentyl]-hept-5-enoic acid (15b) was tested at multiple concentrations in normotensive dogs, dosing once daily for 5 days. At 0.05%, the maximum IOP decrease from baseline was 4.3 mmHg (30%) at 6 h; the maximum OSH score was 0.6 at 6 h. […] This compound was also tested in laser-induced hypertensive monkeys, using one single day dose. At 0.1%, the maximum IOP decrease from baseline was 6 mmHg (19%) at 6 h.
(§2) (Z)-7-[(1R,2S,3R,5R)-5-Chloro-2-(3,5-dichloro-phenoxymethyl)-3-hydroxy-cyclopentyl]-hept-5-enoic acid isopropyl ester (42b) was tested in normotensive dogs at 0.05%, dosing once daily for 5 days. The maximum intraocular pressure (IOP) decrease from baseline was 3 mmHg (19%) at 6 h; the maximum ocular surface hyperemia (OSH) score was 0.6 at 74 h. This compound was also tested in laser-induced hypertensive monkeys, using one single day dose. At 0.01%, the maximum IOP decrease from baseline was 6 mmHg (16%) at 6 h.

[3] = target: T1, hEP4; experiment: FLIPR calcium signal, hEP4; type: cell-based; design: expressed in transfected cells; host or cells: HEK-293(EBNA); settings: HEK-293(EBNA) cells expressing hEP4/Gqs5
Method in brief: (§3)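 HEK-293(EBNA) cells stably expressing a single human prostaglandin receptor (hDP/Gqs5 chimera for DP), Fluo-4 AM loaded, in HBSS-HEPES pH 7.4 at 37 °C. Peak calcium fluorescence scaled to buffer and receptor standard agonist; 10^−5 M single-point or 10^−5–10^−11 M curves, duplicates, n≥3.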

[4] = target: T2, hEP2 (Homo sapiens, UniProt P43116); experiment: cAMP assay, hEP2; type: cell-based
T2 sequence (P43116 whole entry): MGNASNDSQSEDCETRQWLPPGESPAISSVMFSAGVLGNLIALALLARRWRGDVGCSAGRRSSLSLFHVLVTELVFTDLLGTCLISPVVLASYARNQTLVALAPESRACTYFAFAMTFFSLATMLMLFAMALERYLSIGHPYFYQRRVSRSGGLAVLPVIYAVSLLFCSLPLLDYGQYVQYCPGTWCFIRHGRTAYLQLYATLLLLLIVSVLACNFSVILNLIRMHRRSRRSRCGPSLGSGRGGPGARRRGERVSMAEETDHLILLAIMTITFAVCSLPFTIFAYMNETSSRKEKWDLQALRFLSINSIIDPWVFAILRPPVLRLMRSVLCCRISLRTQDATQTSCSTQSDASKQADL

[5] = target: T2, hEP2; experiment: FLIPR calcium signal, hEP2; type: cell-based; design: expressed in transfected cells; host or cells: HEK-293(EBNA); settings: HEK-293(EBNA) cells expressing hEP2/Gqs5
Method in brief: as §3

[6] = tested on: normotensive dogs; experiment: Intraocular pressure and ocular surface hyperemia in normotensive dogs; type: in vivo, dog; design: maximum OSH score: scale not given here; settings: once daily for 5 days
Protocol: as §1, §2

[7] = target: T2, hEP2; experiment: Competition binding, [3H]PGE2, human EP2 receptors; design: expressed in transfected cells; host or cells: HEK 293; settings: [3H]PGE2, HEK 293 cells stably expressing human EP2; read-out: hEP2 Ki
Method in brief: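 HEK 293 membranes or cells stably expressing human EP2 were incubated with 10 nM [3H]PGE2 and test compound in HBSS/20 mM Hepes pH 7.3, 60 min at 23° C, then filtered. Non-specific binding defined with 10 μM PGE2; IC50 from single-site fit converted to Ki using KD 40 nM.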

[8] = Primates, topical, 0.1%, read-out: maximum IOP decrease from baseline
[9] = Canis lupus familiaris, topical, 120 h, 0.1%, read-out: maximum IOP decrease from baseline
[10] = Canis lupus familiaris, topical, 120 h, 0.05%, read-out: maximum IOP decrease from baseline

T1 sequence (P35408 whole entry): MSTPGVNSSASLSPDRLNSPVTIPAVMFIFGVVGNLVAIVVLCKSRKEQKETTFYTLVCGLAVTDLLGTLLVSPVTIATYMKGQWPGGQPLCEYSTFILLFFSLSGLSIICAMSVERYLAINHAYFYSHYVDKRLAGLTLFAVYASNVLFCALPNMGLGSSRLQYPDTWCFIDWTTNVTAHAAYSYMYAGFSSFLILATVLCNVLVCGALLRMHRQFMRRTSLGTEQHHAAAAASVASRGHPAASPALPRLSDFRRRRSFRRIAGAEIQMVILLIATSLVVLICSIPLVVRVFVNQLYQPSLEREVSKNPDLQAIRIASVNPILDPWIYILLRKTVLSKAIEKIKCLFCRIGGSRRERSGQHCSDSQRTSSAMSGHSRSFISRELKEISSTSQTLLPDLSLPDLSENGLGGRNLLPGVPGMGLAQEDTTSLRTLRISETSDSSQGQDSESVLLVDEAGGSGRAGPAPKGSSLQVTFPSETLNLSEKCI

Structure (SMILES)	Ki [1]	maximum IOP decrease from baseline ([2]; 0.1%)	time of maximum IOP decrease ([2]; 0.1%)	change in vivo at 0.1 % [2, 8]	EC50 [3]	EC50 [4]	EC50 [5]	maximum IOP decrease from baseline ([6]; 0.1%)	maximum OSH score ([6]; 0.1%)	time of maximum IOP decrease ([6]; 0.1%)	time of maximum OSH score ([6]; 0.1%)	change in vivo at 0.1 % [6, 9]	Ki [7]	also measured
O=C(O)CCC/C=C\C[C@@H]1[C@@H](COc2cccc3ccccc23)[C@H](O)C[C@H]1Cl [Example 19, (Z)-7-[(1R,2S,3R,5R)-5-Chloro-3-hydroxy-2-(naphthalen-1-yloxymethyl)-cyclopentyl]-hept-5-enoic acid]	315 nM	11.8 mmHg	6 h	31%	115 nM	2 nM	3 nM	5.8 mmHg	0.8	6 h	54 h	41%	17 nM	–
CC(C)OC(=O)CCC/C=C\C[C@@H]1[C@@H](COc2ccc(CO)cc2)[C@H](O)C[C@H]1Cl [Example 42bb, (Z)-7-[(1R,2S,3R,5R)-5-Chloro-3-hydroxy-2-(4-hydroxymethyl-phenoxymethyl)-cyclopentyl]-hept-5-enoic acid isopropyl ester]	–	5.5 mmHg	6 h	16%	–	–	–	4.6 mmHg	0.6	100 h	30 h	33%	–	–
O=C(O)CCC/C=C\C[C@@H]1[C@@H](COc2cc(Cl)cc(Cl)c2)[C@H](O)C[C@H]1Cl [Example 15b, (Z)-7-[(1R,2S,3R,5R)-5-Chloro-2-(3,5-dichloro-phenoxymethyl)-3-hydroxy-cyclopentyl]-hept-5-enoic acid]	–	6 mmHg	6 h	19%	–	–	–	4.8 mmHg	1.3	102 h	6 h	34%	–	maximum IOP decrease from baseline ([6]; 0.05%): 4.3 mmHg; maximum OSH score ([6]; 0.05%): 0.6; time of maximum IOP decrease ([6]; 0.05%): 6 h; time of maximum OSH score ([6]; 0.05%): 6 h; change in vivo at 0.05 % [6, 10]: 30%
O=C(O)CCC/C=C\C[C@@H]1[C@@H](COc2ccc(CO)cc2)[C@H](O)C[C@H]1Cl [Example 43, (Z)-7-[(1R,2S,3R,5R)-5-Chloro-3-hydroxy-2-(4-hydroxymethyl-phenoxymethyl)-cyclopentyl]-hept-5-enoic acid]	> 10000 nM	2 mmHg	6 h	6%	–	5 nM	44 nM	2.8 mmHg	0.6	98 h	98 h	20%	993 nM	–
Cc1cc(C)cc(OC[C@@H]2[C@@H](C/C=C\CCCC(=O)O)[C@H](Cl)C[C@H]2O)c1 [Example 36, (Z)-7-[(1R,2S,3R,5R)-5-Chloro-2-(3,5-dimethyl-phenoxymethyl)-3-hydroxy-cyclopentyl]-hept-5-enoic acid]	1090 nM	9 mmHg	2 h	25%	7720 nM	1.4 nM	27 nM	6.5 mmHg	1.2	52 h	28 h	46%	31 nM	–
O=C(O)CCC/C=C\C[C@@H]1[C@@H](COc2cccc(C(F)(F)F)c2)[C@H](O)C[C@H]1Cl [Example 24, (Z)-7-[(1R,2S,3R,5R)-5-Chloro-3-hydroxy-2-(3-trifluoromethyl-phenoxymethyl)-cyclopentyl]-hept-5-enoic acid]	1420 nM	10.8 mmHg	6 h	28%	9870 nM	2.4 nM	66 nM	2.5 mmHg	0.5	78 h	6 h	16%	44 nM	–
Cc1cc(C)cc(OC[C@@H]2[C@@H](C/C=C\CCCC(=O)OC(C)C)[C@H](Cl)C[C@H]2O)c1 [Example 42u, (Z)-7-[(1R,2S,3R,5R)-5-Chloro-2-(3,5-dimethyl-phenoxymethyl)-3-hydroxy-cyclopentyl]-hept-5-enoic acid isopropyl ester]	–	8 mmHg	6 h	23%	–	–	–	4.3 mmHg	0.9	30 h	74 h	30%	–	–
CC(C)OC(=O)CCC/C=C\C[C@@H]1[C@@H](COc2cc(Cl)cc(Cl)c2)[C@H](O)C[C@H]1Cl [Example 42b, (Z)-7-[(1R,2S,3R,5R)-5-Chloro-2-(3,5-dichloro-phenoxymethyl)-3-hydroxy-cyclopentyl]-hept-5-enoic acid isopropyl ester]	–	–	–	–	–	–	–	–	–	–	–	–	–	maximum IOP decrease from baseline ([2]; 0.01%): 6 mmHg; time of maximum IOP decrease ([2]; 0.01%): 6 h; change in vivo at 0.01 % ([2]; Primates, topical, 0.01%, read-out: maximum IOP decrease from baseline): 16%; maximum IOP decrease from baseline ([6]; 0.05%): 3 mmHg; maximum OSH score ([6]; 0.05%): 0.6; time of maximum IOP decrease ([6]; 0.05%): 6 h; time of maximum OSH score ([6]; 0.05%): 74 h; change in vivo at 0.05 % [6, 10]: 19%
CC(C)OC(=O)CCC/C=C\C[C@@H]1[C@@H](COc2cc(C(F)(F)F)cc(C(F)(F)F)c2)[C@H](O)C[C@H]1Cl [Example 42c, (Z)-7-[(1R,2S,3R,5R)-2-(3,5-Bis-trifluoromethyl-phenoxymethyl)-5-chloro-3-hydroxy-cyclopentyl]-hept-5-enoic acid isopropyl ester]	–	–	–	–	–	–	–	–	–	–	–	–	–	maximum IOP decrease from baseline ([2]; 0.03%): 4 mmHg; time of maximum IOP decrease ([2]; 0.03%): 6 h; change in vivo at 0.03 % ([2]; Primates, topical, 0.03%, read-out: maximum IOP decrease from baseline): 11%; maximum IOP decrease from baseline ([6]; 0.03%): 2.3 mmHg; maximum OSH score ([6]; 0.03%): 0.7; time of maximum IOP decrease ([6]; 0.03%): 100 h; time of maximum OSH score ([6]; 0.03%): 78 h; change in vivo at 0.03 % ([6]; Canis lupus familiaris, topical, 120 h, 0.03%, read-out: maximum IOP decrease from baseline): 14%
